According to article PMC9144902, “Metal(II) Complexes of the Fluoroquinolone Fleroxacin: Synthesis, Characterization and Biological Profile” (Pharmaceutics, 2022):

Tested on: EB–DNA adduct (CT DNA)
Assay: Competitive study with EB (EB–DNA fluorescence quenching)
Format: binding, calf
Settings: for Ksv, Stern–Volmer constant: EB–DNA adduct; for ΔI/Io, percentage of EB–DNA fluorescence quenching: [EB] = 20 μM, [DNA] = 26 μM, λexc 540 nm, λem 592 nm; for EB–DNA relative fluorescence emission intensity, % of the initial (I/Io): λemission = 592 nm, final value (up to), Figure S14; for kq, EB–DNA quenching constant: τo = 23 ns
Procedure: Ethidium bromide is a typical marker of intercalation because it can intercalate between adjacent DNA bases with its planar phenanthridine ring.
The fluorescence emission spectra of the EB–DNA adduct ([EB] = 20 μM, [DNA] = 26 μM) in the absence and presence of the compounds were recorded at increasing amounts of the respective compounds. […] As a conclusion, an intercalative interaction of the complexes with CT DNA can be proposed.
The values of the Stern–Volmer constants (Ksv) for the compounds were calculated using the linear Stern–Volmer equation (Equation (S2)) and were of the order of 10^5 M^−1 (Table 8), indicating tight binding of the complexes with DNA [61]. The Ksv values for the complexes are in the range found for a number of metal(II)–quinolone complexes, and complex 12 presents the highest Ksv value (Ksv = 7.25(±0.30) × 10^5 M^−1) among the compounds studied. In addition, the EB–DNA quenching constants (kq) for the compounds were calculated with Equation (S3), assuming τo = 23 ns as the fluorescence lifetime. The values of kq (Table 8) are much higher than the value of 10^10 M^−1s^−1, indicating a static mechanism of EB–DNA fluorescence quenching induced by the compounds, which can result from the formation of a new adduct apparently consisting of each complex and DNA [61].
In order to determine and confirm the DNA–binding mode of the compounds, a competitive study with EB as an intercalating marker is performed b y fluorescence emission spectroscopy.
Therefo re, the E B–displacing abilit y of the compounds from its EB –DN A conjugate was ex amined.
The DNA–EB adduct was prepared b y addition of 20 μM EB and 26 μM CT DNA in buffer solution (150 mM NaCl and 15 mM trisodium citrate at pH 7.0). The potential intercalation of the compounds between the DNA–bases was studied by the addition of a certain amount of the compound solution into the EB–DNA adduct solution. The influence of the compounds on the EB – DNA solution was monitored through the changes of the fluorescence emission spectra at excitation […]
wavelen gth (λex ) at 540 nm [S3]. […]
room temperature in solution or in the presence of DNA, under the same experimental conditions (λex = 540 nm). Bearing t hat in mind, the observed quenching of the EB–DNA solution is evidentl y associated to the displacement of EB from its EB–DNA adduct.
The quenching effici ency (KSV) for each compound was assessed according to the Stern – Volmer equation: Io =1+ k τ [Q] = 1+ K [Q], (eq. S2) [S3] where I0 and I = the fluorescence […]
emission intensities of EB–DNA in the absence and presence of the quencher, respectivel y, [Q] = the concentration of the quencher (i.e. compounds). KSV is obtained from t he Stern–Volmer plots b y the slope of the diagram I0/ I versus [Q]. Taking τ0 = 23 ns as the fluorescence lifetime of the EB– DNA s ystem [S5], the EB –DNA quenching constants (k q) of the compounds can be determined accordin g to eq.S3: K SV = kqτo . […]
[S2] Irgi, E.P.; Geromichalos, G.D.; Balala, S.; Kljun, J.; Kalogiannis, S.; Papadopoulos, A.; Turel, I.; Psomas, G. Cobalt(II) complexes with quinolone antimicrobial drug oxolinic acid: […]
[ S 5] Heller, D.P.; Greenstock, C.L. Fluorescence lifetime analysis of DNA intercalated ethidium bromide and quenching by free d ye. Biophys. Chem . 1994, 50, 305–312.

CN1CCN(c2c(F)cc3c(=O)c(C(=O)[O-])cn(CCF)c3c2F)CC1.CN1CCN(c2c(F)cc3c(=O)c(C(=O)[O-])cn(CCF)c3c2F)CC1.[Cu+2] [complex 1, [Cu(flrx)2]]
Ksv, Stern–Volmer constant: 2.18(±0.06) × 10^5 M^–1 | ΔI/Io, percentage of EB–DNA fluorescence quenching: 62.2% | EB–DNA relative fluorescence emission intensity, % of the initial (I/Io): 37.8% | kq, EB–DNA quenching constant: 9.47(±0.03) × 10^12 M^−1s^−1

CN1CCN(c2c(F)cc3c(=O)c(C(=O)[O-])cn(CCF)c3c2F)CC1.CN1CCN(c2c(F)cc3c(=O)c(C(=O)[O-])cn(CCF)c3c2F)CC1.O.O.[Mn+2] [complex 2, [Mn(flrx)2(H2O)2]]
Ksv, Stern–Volmer constant: 6.07(±0.23) × 10^5 M^–1 | ΔI/Io, percentage of EB–DNA fluorescence quenching: 74.4% | EB–DNA relative fluorescence emission intensity, % of the initial (I/Io): 15.6% | kq, EB–DNA quenching constant: 2.64(±0.10) × 10^13 M^−1s^−1

CN1CCN(c2c(F)cc3c(=O)c(C(=O)[O-])cn(CCF)c3c2F)CC1.CN1CCN(c2c(F)cc3c(=O)c(C(=O)[O-])cn(CCF)c3c2F)CC1.CO.CO.[Co+2] [complex 4, [Co(flrx)2(MeOH)2]]
Ksv, Stern–Volmer constant: 1.36(±0.03) × 10^5 M^–1 | ΔI/Io, percentage of EB–DNA fluorescence quenching: 64.1% | EB–DNA relative fluorescence emission intensity, % of the initial (I/Io): 35.9% | kq, EB–DNA quenching constant: 5.93(±0.14) × 10^12 M^−1s^−1

CN1CCN(c2c(F)cc3c(=O)c(C(=O)[O-])cn(CCF)c3c2F)CC1.CN1CCN(c2c(F)cc3c(=O)c(C(=O)[O-])cn(CCF)c3c2F)CC1.CO.CO.[Ni+2] [complex 5, [Ni(flrx)2(MeOH)2]]
Ksv, Stern–Volmer constant: 2.33(±0.08) × 10^5 M^–1 | ΔI/Io, percentage of EB–DNA fluorescence quenching: 56.9% | EB–DNA relative fluorescence emission intensity, % of the initial (I/Io): 43.1% | kq, EB–DNA quenching constant: 1.01(±0.03) × 10^13 M^−1s^−1

CN1CCN(c2c(F)cc3c(=O)c(C(=O)[O-])cn(CCF)c3c2F)CC1.[Cl-].[Cu+2].c1ccc(-c2ccccn2)nc1 [complex 6, [Cu(flrx)(bipy)Cl]]
Ksv, Stern–Volmer constant: 2.03(±0.05) × 10^5 M^–1 | ΔI/Io, percentage of EB–DNA fluorescence quenching: 61.9% | EB–DNA relative fluorescence emission intensity, % of the initial (I/Io): 38.1% | kq, EB–DNA quenching constant: 8.84(±0.21) × 10^12 M^−1s^−1

CN1CCN(c2c(F)cc3c(=O)c(C(=O)[O-])cn(CCF)c3c2F)CC1.[Cl-].[Cu+2].c1ccc(Nc2ccccn2)nc1 [complex 7, [Cu(flrx)(bipyam)Cl]]
Ksv, Stern–Volmer constant: 3.44(±0.06) × 10^5 M^–1 | ΔI/Io, percentage of EB–DNA fluorescence quenching: 62.7% | EB–DNA relative fluorescence emission intensity, % of the initial (I/Io): 37.3% | kq, EB–DNA quenching constant: 1.50(±0.03) × 10^13 M^−1s^−1

CN1CCN(c2c(F)cc3c(=O)c(C(=O)[O-])cn(CCF)c3c2F)CC1.[Cl-].[Cu+2].c1cnc2c(c1)ccc1cccnc12 [complex 8, [Cu(flrx)(phen)Cl]]
Ksv, Stern–Volmer constant: 3.25(±0.08) × 10^5 M^–1 | ΔI/Io, percentage of EB–DNA fluorescence quenching: 66.4% | EB–DNA relative fluorescence emission intensity, % of the initial (I/Io): 33.6% | kq, EB–DNA quenching constant: 1.41(±0.03) × 10^13 M^−1s^−1

CN1CCN(c2c(F)cc3c(=O)c(C(=O)[O-])cn(CCF)c3c2F)CC1.CN1CCN(c2c(F)cc3c(=O)c(C(=O)[O-])cn(CCF)c3c2F)CC1.[Mn+2].c1ccc(-c2ccccn2)nc1 [complex 9, [Mn(flrx)2(bipy)]]
Ksv, Stern–Volmer constant: 3.31(±0.07) × 10^5 M^–1 | ΔI/Io, percentage of EB–DNA fluorescence quenching: 73.8% | EB–DNA relative fluorescence emission intensity, % of the initial (I/Io): 26.2% | kq, EB–DNA quenching constant: 1.44(±0.03) × 10^13 M^−1s^−1

CN1CCN(c2c(F)cc3c(=O)c(C(=O)[O-])cn(CCF)c3c2F)CC1.CN1CCN(c2c(F)cc3c(=O)c(C(=O)[O-])cn(CCF)c3c2F)CC1.[Mn+2].c1ccc(Nc2ccccn2)nc1 [complex 10, [Mn(flrx)2(bipyam)]]
Ksv, Stern–Volmer constant: 5.92(±0.14) × 10^5 M^–1 | ΔI/Io, percentage of EB–DNA fluorescence quenching: 81.1% | EB–DNA relative fluorescence emission intensity, % of the initial (I/Io): 18.9% | kq, EB–DNA quenching constant: 2.57(±0.06) × 10^13 M^−1s^−1

CN1CCN(c2c(F)cc3c(=O)c(C(=O)[O-])cn(CCF)c3c2F)CC1.CN1CCN(c2c(F)cc3c(=O)c(C(=O)[O-])cn(CCF)c3c2F)CC1.[Mn+2].c1cnc2c(c1)ccc1cccnc12 [complex 11, [Mn(flrx)2(phen)]]
Ksv, Stern–Volmer constant: 1.83(±0.03) × 10^5 M^–1 | ΔI/Io, percentage of EB–DNA fluorescence quenching: 76.7% | EB–DNA relative fluorescence emission intensity, % of the initial (I/Io): 23.3% | kq, EB–DNA quenching constant: 7.94(±0.14) × 10^12 M^−1s^−1

CN1CCN(c2c(F)cc3c(=O)c(C(=O)[O-])cn(CCF)c3c2F)CC1.CN1CCN(c2c(F)cc3c(=O)c(C(=O)[O-])cn(CCF)c3c2F)CC1.[Co+2].c1ccc(-c2ccccn2)nc1 [complex 15, [Co(flrx)2(bipy)]]
Ksv, Stern–Volmer constant: 4.69(±0.09) × 10^5 M^–1 | ΔI/Io, percentage of EB–DNA fluorescence quenching: 80.4% | EB–DNA relative fluorescence emission intensity, % of the initial (I/Io): 19.6% | kq, EB–DNA quenching constant: 2.04(±0.04) × 10^13 M^−1s^−1

CN1CCN(c2c(F)cc3c(=O)c(C(=O)[O-])cn(CCF)c3c2F)CC1.CN1CCN(c2c(F)cc3c(=O)c(C(=O)[O-])cn(CCF)c3c2F)CC1.[Co+2].c1ccc(Nc2ccccn2)nc1 [complex 16, [Co(flrx)2(bipyam)]]
Ksv, Stern–Volmer constant: 3.77(±0.12) × 10^5 M^–1 | ΔI/Io, percentage of EB–DNA fluorescence quenching: 70.7% | EB–DNA relative fluorescence emission intensity, % of the initial (I/Io): 29.3% | kq, EB–DNA quenching constant: 1.64(±0.05) × 10^13 M^−1s^−1

CN1CCN(c2c(F)cc3c(=O)c(C(=O)[O-])cn(CCF)c3c2F)CC1.CN1CCN(c2c(F)cc3c(=O)c(C(=O)[O-])cn(CCF)c3c2F)CC1.[Co+2].c1cnc2c(c1)ccc1cccnc12 [complex 17, [Co(flrx)2(phen)]]
Ksv, Stern–Volmer constant: 3.56(±0.10) × 10^5 M^–1 | ΔI/Io, percentage of EB–DNA fluorescence quenching: 69.8% | EB–DNA relative fluorescence emission intensity, % of the initial (I/Io): 30.2% | kq, EB–DNA quenching constant: 1.55(±0.05) × 10^13 M^−1s^−1

CN1CCN(c2c(F)cc3c(=O)c(C(=O)[O-])cn(CCF)c3c2F)CC1.CN1CCN(c2c(F)cc3c(=O)c(C(=O)[O-])cn(CCF)c3c2F)CC1.[Ni+2].c1ccc(Nc2ccccn2)nc1 [complex 18, [Ni(flrx)2(bipyam)]]
Ksv, Stern–Volmer constant: 3.02(±0.13) × 10^5 M^–1 | ΔI/Io, percentage of EB–DNA fluorescence quenching: 59.3% | kq, EB–DNA quenching constant: 1.31(±0.05) × 10^13 M^−1s^−1

CN1CCN(c2c(F)cc3c(=O)c(C(=O)[O-])cn(CCF)c3c2F)CC1.CN1CCN(c2c(F)cc3c(=O)c(C(=O)[O-])cn(CCF)c3c2F)CC1.[Ni+2].c1cnc2c(c1)ccc1cccnc12 [complex 19, [Ni(flrx)2(phen)]]
Ksv, Stern–Volmer constant: 3.18(±0.14) × 10^5 M^–1 | ΔI/Io, percentage of EB–DNA fluorescence quenching: 68.1% | EB–DNA relative fluorescence emission intensity, % of the initial (I/Io): 31.9% | kq, EB–DNA quenching constant: 1.38(±0.05) × 10^13 M^−1s^−1
